EPA's ToxValDB 9.5

Experiments:
[1] = tested on: Rattus norvegicus; assay: FEL; higher = less toxic; details: duration: 14 days, oral, gavage, Crl:CD(SD)
[2] = tested on: Mus musculus
[3] = developmental, duration: 5 days, oral, F, Developmental: Delay in vaginal opening at 5 mg/kg and mammary gland growth stimulation a 5 mg/kg and inhibition at 10 mg/kg
[4] = developmental, duration: 7 days, oral, F, Kunming, Developmental: Increased resorbed embryos at 10 mg/kg/day in GD 13 group
[5] = developmental, duration: 17 days, oral, F, C57BL/6, Developmental: Developmental delays in the mammary glands on PNDs 21 (38%) and 61 (25%)
[6] = developmental, duration: 17 days, oral, F, CD1, Developmental: Increased ambulatory activity and decreased methamphetamineinduced activity
[7] = developmental, duration: 17 days, oral, F, Developmental: Decrease in number of successful births
[8] = developmental, duration: 17 days, oral, F, Hepatic: Centrilobular hepatocyte hypertrophy and bile duct hyperplasia at 3 mg/kg/day
[9] = reproduction developmental, duration: 17 days, oral, F, CD1, Hepatic: Increase in severity of chronic inflammation at ?1 mg/kg/day / Ito cell hypertrophy and centrilobular hepatocellular hypertrophy …
[10] = short-term, duration: 4 days, dermal, F, BALB/c, Hepatic: 52% increase in absolute liver weight
[11] = short-term, duration: 4 days, dermal, F, BALB/c, Immunotoxicological: Increased serum IgE following ovalbumin challenge
[12] = short-term, duration: 5 days, oral, F, BALB/c, Body Weight: 13% decrease in body weight gain
[13] = short-term, duration: 5 days, oral, F, Body Weight: 10% decrease in body weight gain
[14] = short-term, duration: 10 days, oral, F, Immunotoxicological: Altered response to sRBC

With `O=C(O)C(F)(F)C(F)(F)C(F)(F)C(F)(F)C(F)(F)C(F)(F)C(F)(F)C(F)(F)C(F)(F)C(F)(F)C(F)(F)F` [Perfluorododecanoic acid] the FEL ([1]; developmental, F, generation: F1, F1: Whole Body: Body Weight, Fetal, PND0 + F1: Whole Body: Body Weight, Fetal, PND1 + F1: Whole Body: Body Weight, Fetal, PND4) was 2.5 mg/kg-day, the FEL ([1]; developmental, M, generation: F1, F1: Whole Body: Body Weight, Fetal, PND1 + F1: Whole Body: Body Weight, Fetal, PND4) was 2.5 mg/kg-day and the FEL ([1]; reproduction developmental, F, generation: P0, P0: Adrenal: Adrenal Gland Weight, Absolute + P0: Adrenal: Adrenal Gland Weight, Relative + P0: Blood: Albumin/Globulin (A/G) Ratio + P0: …) was 2.5 mg/kg-day. It also gave an FEL ([1]; reproduction developmental, M/F, generation: F1, F1: Uterus: Fetuses, Dead + F1: Whole Body: Live Birth Index + F1: Whole Body: Male Pups per Pups Sexed + F1: Whole Body: Number of litters) of 2.5 mg/kg-day.

Molecule `O=C(O)C(F)(F)C(F)(F)C(F)(F)C(F)(F)C(F)(F)C(F)(F)C(F)(F)F` [Perfluorooctanoic acid] has an LOAEL ([2]; developmental, duration: 5 days, oral, F, BALB/c, Developmental: Delay in vaginal opening at 1 mg/kg and mammary gland growth inhibition at 5 and 10 mg/kg) of 1 mg/kg-day, an LOAEL [2, 3] of 5 mg/kg-day and an NOAEL [2, 3] of 1 mg/kg-day. It also gave an LOAEL ([2]; developmental, duration: 5 days, oral, F, Developmental: Mammary gland growth stimulation) of 5 mg/kg-day, an LOAEL [2, 4] of 10 mg/kg-day and an NOAEL [2, 4] of 5 mg/kg-day. The LOAEL ([2]; developmental, duration: 15 days, oral, F, C57BL/6, Developmental: Increased horizontal and ambulatory locomotor activity and decreased resting time in males / decrease in novel object …) was 0.1 mg/kg-day, the LOAEL [2, 5] was 0.3 mg/kg-day and the NOAEL [2, 5] was 0.1 mg/kg-day. For the same molecule, the LOAEL ([2]; developmental, duration: 17 days, oral, F, CD1, Developmental: Developmental delays in mammary gland development) was 0.01 mg/kg-day, the LOAEL ([2]; developmental, duration: 17 days, oral, F, CD1, Developmental: Developmental delays in the mammary glands on PNDs 35 (26%) and 56 (30%)) was 0.01 mg/kg-day and the LOAEL ([2]; developmental, duration: 17 days, oral, F, CD1, Developmental: Impaired development of mammary glands in offspring) was 0.3 mg/kg-day. It also gave an LOAEL [2, 6] of 1 mg/kg-day, an NOAEL [2, 6] of 0.3 mg/kg-day and an LOAEL ([2]; developmental, duration: 17 days, oral, F, Developmental: 31.5% reduced pups per litter on PND 20) of 3 mg/kg-day. The LOAEL [2, 7] was 3 mg/kg-day, the NOAEL [2, 7] was 0.1 mg/kg-day and the NOAEL ([2]; developmental, duration: 17 days, oral, F, Hepatic: 28% increased liver weight, hepatocellular hypertrophy with increased peroxisomes) was 3 mg/kg-day. The LOAEL [2, 8] was 3 mg/kg-day, the NOAEL [2, 8] was 1 mg/kg-day and the LOAEL ([2]; developmental, duration: 18 days, oral, F, ICR, Developmental: 14% increased neonatal mortality, 9.5% reduced fetal body weight) was 5 mg/kg-day. For the same molecule, the NOAEL ([2]; developmental, duration: 18 days, oral, F, ICR, Developmental: 14% increased neonatal mortality, 9.5% reduced fetal body weight + Hepatic: 35% increased maternal relative liver weight with…) was 1 mg/kg-day, the LOAEL ([2]; developmental, duration: 20 days, oral, diet, M/F, C57BL/6, developmental) was 8.29 mg/L and the LOAEL ([2]; developmental, duration: 21 days, oral, F, C57BL/6, Developmental: Altered femur and tibial bone morphology, decreased tibial mineral density) was 0.3 mg/kg-day. For the same molecule, the LOAEL ([2]; developmental, duration: 21 days, oral, M/F, Developmental: Altered exploratory behavior in adult offspring (increased in males and decreased in females) / increased global activity in…) was 0.3 mg/kg-day, the LOAEL ([2]; reproduction developmental, duration: 7 days, oral, F, Kunming, Reproductive: Decreases in progesterone levels at ?5 mg/kg in GD 13 group / increased serum estradiol level at 10 mg/kg/day on GD 7 / …) was 2.5 mg/kg-day and the LOAEL [2, 9] was 1 mg/kg-day. For the same molecule, the NOAEL [2, 9] was 0.3 mg/kg-day, the NOAEL ([2]; reproduction developmental, duration: 17 days, oral, F, Hepatic: Increased severity of centrilobular hepatocyte hypertrophy at ?0.3 mg/kg/day) was 1 mg/kg-day and the LOAEL ([2]; reproduction developmental, duration: 17 days, oral, M/F, CD1, Hepatic: Increased severity of hepatocellular hypertrophy at PND 91 and periportal inflammation on PND 21 at ?0.01 mg/kg/day (incidence was …) was 0.01 mg/kg-day. It also gave an LOAEL ([2]; reproduction developmental, duration: 18 days, oral, F, ICR, Hepatic: 35% increased maternal relative liver weight with hepatocellular hypertrophy at ?1 mg/kg/day / single cell necrosis and mild …) of 10 mg/kg-day, an LOAEL ([2]; short-term, duration: 3 weeks, oral, M, Hepatic: Hepatocellular hypertrophy and degeneration) of 5 mg/kg-day and an NOAEL ([2]; short-term, duration: 4 days, dermal, F, BALB/c) of 50 mg/kg-day. For the same molecule, the LOAEL [2, 10] was 6.25 mg/kg-day, the NOAEL [2, 10] was 2.5 mg/kg-day and the LOAEL [2, 11] was 18.8 mg/kg-day. The NOAEL [2, 11] was 12.5 mg/kg-day, the LOAEL [2, 12] was 10 mg/kg-day and the NOAEL [2, 12] was 5 mg/kg-day. For the same molecule, the NOAEL ([2]; short-term, duration: 5 days, oral, F, BALB/c, Hepatic: Increases in liver weight and hepatocellular hypertrophy at ?1 mg/kg) was 10 mg/kg-day, the LOAEL [2, 13] was 10 mg/kg-day and the NOAEL [2, 13] was 5 mg/kg-day. For the same molecule, the LOAEL ([2]; short-term, duration: 5 days, oral, F, C57BL/6, Reproductive: Increased progesterone levels) was 5 mg/kg-day, the NOAEL ([2]; short-term, duration: 5 days, oral, F, Hepatic: Increases in liver weight and hepatocellular hypertrophy at ?1 mg/kg) was 10 mg/kg-day and the LOAEL ([2]; short-term, duration: 7 days, oral, F, BALB/c, Body Weight: 36% decrease in body weight gain + Immunotoxicological: Inhibition of T-and B-lymphocyte proliferation in response to sRBC / …) was 20 mg/kg-day. It also gave an NOAEL ([2]; short-term, duration: 7 days, oral, F, BALB/c, Hepatic: 32% increase in relative liver weight) of 20 mg/kg-day, an LOAEL ([2]; short-term, duration: 7 days, oral, M, Body Weight: 14% decreased mean body weight + Immunotoxicological: 40% reduction in spleen weight and 79% reduction in thymus weight) of 33 mg/kg-day and an LOAEL ([2]; short-term, duration: 7 days, oral, M, Body Weight: >10% reduced final body weight) of 24 mg/kg-day. The NOAEL ([2]; short-term, duration: 7 days, oral, M, Hepatic: 2-fold increase in absolute liver weight) was 24 mg/kg-day, the NOAEL ([2]; short-term, duration: 7 days, oral, M, Hepatic: 86% increase in absolute liver weight) was 33 mg/kg-day and the NOAEL ([2]; short-term, duration: 7 days, oral, M, Hepatic: Hepatocellular hypertrophy, steatosis, and increased hepatic triglyceride levels) was 10 mg/kg-day. The LOAEL ([2]; short-term, duration: 7 days, oral, M, Immunotoxicological: Decreased humoral response to immunization with horse red blood cells) was 24 mg/kg-day, the LOAEL [2, 14] was 15 mg/kg-day and the NOAEL [2, 14] was 7.5 mg/kg-day. The LOAEL ([2]; short-term, duration: 10 days, oral, M, Body Weight: 17% decrease in final body weight) was 30 mg/kg-day, the LOAEL ([2]; short-term, duration: 10 days, oral, M, Body Weight: 25% body weight loss after 5 days of treatment) was 78 mg/kg-day and the LOAEL ([2]; short-term, duration: 10 days, oral, M, Body Weight: 25% body weight loss after 10 days of treatment) was 78 mg/kg-day. For the same molecule, the NOAEL ([2]; short-term, duration: 10 days, oral, M, C57BL/6, Hepatic: 68% increase in liver weight, hepatocellular hypertrophy, and decreased serum cholesterol levels) was 2 mg/kg-day, the NOAEL ([2]; short-term, duration: 10 days, oral, M, Hepatic: 35% increase in absolute liver weight at ?1 mg/kg/day) was 1 mg/kg-day and the NOAEL ([2]; short-term, duration: 10 days, oral, M, Hepatic: 74% increase in absolute liver weight at ?78 mg/kg/day) was 390 mg/kg-day. For the same molecule, the NOAEL ([2]; short-term, duration: 10 days, oral, M, Hepatic: 74% increase in absolute liver weight in 5 days at ?78 mg/kg/day) was 390 mg/kg-day, the NOAEL ([2]; short-term, duration: 10 days, oral, M, Hepatic: >90% increase in absolute and relative liver weight) was 30 mg/kg-day and the LOAEL ([2]; short-term, duration: 10 days, oral, M, Immunotoxicological: 40-50% decrease in spleen and thymus weights) was 11.5 mg/kg-day. The LOAEL ([2]; short-term, duration: 10 days, oral, M, Immunotoxicological: 86% reduction in absolute thymus weight / 30% reduction in absolute spleen weight) was 30 mg/kg-day, the NOAEL ([2]; short-term, duration: 15 days, oral, F) was 7.5 mg/kg-day and the LOAEL ([2]; short-term, duration: 15 days, oral, F, Body Weight: 14-20% decrease in body weight in wild-type mice) was 30 mg/kg-day. For the same molecule, the LOAEL ([2]; short-term, duration: 21 days, oral, M, ICR, Immunotoxicological: Marked hyperplasia in spleen white pulp and thymic atrophy) was 47.2 mg/kg-day, the NOAEL ([2]; subchronic, duration: 6 weeks, oral, M/F, BALB/c, Hepatic: 54-65% increase in relative liver weight / 20% increase in plasma cholesterol in males) was 0.55 mg/kg-day and the NOAEL ([2]; subchronic, duration: 6 weeks, oral, M/F, C57BL/6, Hepatic: 66-67% increase in relative liver weight in males / increased plasma cholesterol levels in males (35%) and females (70%)) was 0.55 mg/kg-day.
